Data: US4521422A, “Aryl and heteroaryl[7-(aryl and heteroaryl)pyrazolo[1,5-a]pyrimidin-3-yl]methanones” (American Cyanamid Company, priority 1984, dated 1985)

Key:
[1] = test system: Nonconditioned Passive Avoidance in Rats; test: Nonconditioned passive avoidance (conflict) test in rats; assay type: in vivo, rat (Wistar); set-up: key: Active: considered active if the number of shocks received by the test group is significantly higher than the control group by the Mann-Witney U test; settings: oral or i.p.
Protocol: Another test which has been used to assess anti-anxiety effects is a nonconditioned passive avoidance procedure described by [J. R. Vogel, B. Beer and D. E. Clody, "A Simple and Reliable Conflict Procedure for Testing Anti-Anxiety Agents", Psychopharmacologia, 21, 1-7 (1971)]. A conflict situation is induced in rats by a modification of this method.
Groups of 6 naive, Wistar strain rats, weighing 200-240 g each were deprived of water for 48 hours and food for 24 hours. The test compounds were administered in single or graded, oral or intraperitoneal doses, suspended in a 2% starch vehicle containing 0.5% v/v polyethylene glycol and one drop of polysorbate 80. Control animals received the vehicle alone. At 30 to 60 minutes each rat was placed in an individual plexiglass chamber. Water was available ad libitum from a tap located in the rear of the chamber. A 0.7 milliampere DC shocking current was established between the stainless steel grid floor and the tap. After 20 licks of non-shocked drinking, a shock was delivered for 2 seconds and then further shocks were delivered on a ratio of one shock for 2 seconds for every 20 licks. This was continued for a total of 3 minutes. The number of shocks taken by each rat during the 3 minute interval was recorded and compared to a control group. […]

[2] = test system: Clonic Seizures Caused by Pentylenetetrazole in Rats; test: Protection against clonic seizures caused by pentylenetetrazole in rats; assay type: in vivo; settings: Rattus norvegicus, oral or i.p., read-out: % of Rats Protected; for responders at 25 mg/kg: pentylenetetrazole 23 mg/kg i.v. at 30 or 60 min
Outline: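 Rats (at least 4 per group) given single or graded oral or intraperitoneal doses in starch/PEG/Polysorbate 80 vehicle. After 30 or 60 min, pentylenetetrazole 23 mg/kg i.v. was given, a dose expected to induce clonic seizures in 99% of unprotected rats. Protection from convulsions was scored.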

[3] = test system: Brain-Specific Receptors of Rats; test: Inhibition of the binding of 3H-benzodiazepine to brain-specific receptors of rats; set-up: species or system rat (Wistar); settings: 3H-diazepam 1.5 nM or 3H-flunitrazepam 1.0 nM; rat cortex P2 fraction; test concentration not given
[4] = pentylenetetrazole 23 mg/kg i.v.

Structure (SMILES) | Result (nonconditioned passive avoidance) ([1]; dose 25.0 mg/kg) | responders at 25 mg/kg [2] [%] | % Inhibition [3] [%] | further results
O=C(c1ccccn1)c1cnn2c(-c3cccnc3)ccnc12 [2-Pyridinyl[7-(3-pyridinyl)pyrazolo[1,5-a]pyrimidin-3-yl]methanone] | Active | 75 | 98 | –
O=C(c1ccco1)c1cnn2c(-c3ccncc3)ccnc12 [2-furanyl[7-(4-pyridinyl)pyrazolo[1,5-a]pyrimidin-3-yl]methanone] | Active | 25 | 19 | –
O=C(c1cccs1)c1cnn2c(-c3cccc(C(F)(F)F)c3)ccnc12 [2-thienyl[7-[3-(trifluoromethyl)phenyl]pyrazolo[1,5-a]pyrimidin-3-yl]methanone] | Active | 100 | 99 | –
O=C(c1ccoc1)c1cnn2c(-c3cccnc3)ccnc12 [3-furanyl[7-(3-pyridinyl)pyrazolo[1,5-a]pyrimidin-3-yl]methanone] | Active | 100 | 77 | –
O=C(c1ccncc1)c1cnn2c(-c3ccncc3)ccnc12 [4-pyridinyl[7-(4-pyridinyl)pyrazolo[1,5-a]pyrimidin-3-yl]methanone] | Active | – | 11 | –
O=C(c1ccccc1F)c1cnn2c(-c3ccncc3)ccnc12 [(2-fluorophenyl)[7-(4-pyridinyl)pyrazolo[1,5-a]pyrimidin-3-yl]methanone] | Active | 50 | – | –
O=C(c1ccccc1F)c1cnn2c(-c3cccc(C(F)(F)F)c3)ccnc12 [(2-fluorophenyl)[7-[3-(trifluoromethyl)phenyl]pyrazolo[1,5-a]pyrimidin-3-yl]methanone] | Active | 50 | – | –
COc1ccc(C(=O)c2cnn3c(-c4cccnc4)ccnc23)cc1OC [(3,4-dimethoxyphenyl)[7-(3-pyridinyl)pyrazolo[1,5-a]pyrimidin-3-yl]methanone] | Active | 87 | 75 | –
O=C(c1cccc(F)c1)c1cnn2c(-c3cccnc3)ccnc12 [(3-fluorophenyl)[7-(3-pyridinyl)pyrazolo[1,5-a]pyrimidin-3-yl]methanone] | Active | 100 | 20 | –
O=C(c1cccc(F)c1)c1cnn2c(-c3ccncc3)ccnc12 [(3-fluorophenyl)[7-(4-pyridinyl)pyrazolo[1,5-a]pyrimidin-3-yl]methanone] | Active | 100 | – | –
COc1cccc(C(=O)c2cnn3c(-c4cccnc4)ccnc23)c1 [(3-methoxyphenyl)[7-(3-pyridinyl)pyrazolo[1,5-a]pyrimidin-3-yl]methanone] | Active | 75 | – | –
Cc1cccc(C(=O)c2cnn3c(-c4cccnc4)ccnc23)c1 [(3-methylphenyl)[7-(3-pyridinyl)pyrazolo[1,5-a]pyrimidin-3-yl]methanone] | Active | 100 | 70 | –
O=C(c1ccc(Cl)cc1)c1cnn2c(-c3cccc(C(F)(F)F)c3)ccnc12 [(4-chlorophenyl)[7-[3-(trifluoromethyl)phenyl]pyrazolo[1,5-a]pyrimidin-3-yl]methanone] | Active | – | 81 | –
CCc1ccc(C(=O)c2cnn3c(-c4cccnc4)ccnc23)cc1 [(4-ethylphenyl)[7-(3-pyridinyl)pyrazolo[1,5-a]pyrimidin-3-yl]methanone] | Active | 100 | – | –
O=C(c1ccc(F)cc1)c1cnn2c(-c3cccnc3)ccnc12 [(4-fluorophenyl)[7-(3-pyridinyl)pyrazolo[1,5-a]pyrimidin-3-yl]methanone] | Active | 63 | – | –
O=C(c1ccc(F)cc1)c1cnn2c(-c3ccc(F)cc3)ccnc12 [(4-fluorophenyl)[7-(4-fluorophenyl)pyrazolo[1,5-a]pyrimidin-3-yl]methanone] | Active | 75 | 34 | –

Structure (SMILES) | Result (nonconditioned passive avoidance) ([1]; dose 25.0 mg/kg) | responders at 25 mg/kg [2] [%] | % Inhibition [3] [%] | further results
O=C(c1ccc(F)cc1)c1cnn2c(-c3cccc(C(F)(F)F)c3)ccnc12 [(4-fluorophenyl)[7-[3-(trifluoromethyl)phenyl]pyrazolo[1,5-a]pyrimidin-3-yl]methanone] | Active | – | 50 | responders at 12.5 mg/kg [2, 4]: 38%
Cc1ccc(C(=O)c2cnn3c(-c4cccc(C(F)(F)F)c4)ccnc23)cc1 [(4-methylphenyl)[7-[3-(trifluoromethyl)phenyl]pyrazolo[1,5-a]pyrimidin-3-yl]methanone] | – | 50 | – | Result (nonconditioned passive avoidance) ([1]; dose 12.5 mg/kg): Active
CCN(C(C)=O)c1cccc(-c2ccnc3c(C(=O)c4ccco4)cnn23)c1 [N--ethyl-N--[3-[3-(2-furanylcarbonyl)pyrazolo[1,5-a]pyrimidin-7-yl]phenyl]acetamide] | – | – | – | Result (nonconditioned passive avoidance) ([1]; dose 12.5 mg/kg): Active; responders at 12.5 mg/kg [2, 4]: 100%
CCN(C(C)=O)c1cccc(-c2ccnc3c(C(=O)c4ccccc4)cnn23)c1 [N-[3-(3-Benzoylpyrazolo[1,5-a]pyrimidin-7-yl)phenyl]-N-ethylacetamide] | Active | – | – | responders at 6.2 mg/kg ([2]; dose 6.2 mg/kg, pentylenetetrazole 23 mg/kg i.v.): 100%
CC(=O)N(C)c1cccc(-c2ccnc3c(C(=O)c4ccccc4)cnn23)c1 [N-[3-(3-Benzoylpyrazolo[1,5-a]pyrimidin-7-yl)phenyl]-N-methylacetamide] | – | – | – | Result (nonconditioned passive avoidance) ([1]; dose 3.1 mg/kg): Active; responders at 0.8 mg/kg [2, 4]: 75%
CCC(=O)N(C)c1cccc(-c2ccnc3c(C(=O)c4ccccc4)cnn23)c1 [N-[3-(3-Benzoylpyrazolo[1,5-a]pyrimidin-7-yl)phenyl]-N-methylpropanamide] | – | – | – | Result (nonconditioned passive avoidance) ([1]; dose 1.5 mg/kg): Active; responders at 0.8 mg/kg [2, 4]: 100%
CCC(=O)N(CC)c1cccc(-c2ccnc3c(C(=O)c4ccccc4)cnn23)c1 [N-[3-(3-Benzoylpyrazolo[1,5-a]pyrimidin-7-yl)phenyl]N-ethylpropanamide] | – | – | – | Result (nonconditioned passive avoidance) ([1]; dose 12.5 mg/kg): Active; responders at 12.5 mg/kg [2, 4]: 100%
CC(=O)N(C)c1cccc(-c2ccnc3c(C(=O)c4ccco4)cnn23)c1 [N-[3-[3-(2-Furancarbonyl)pyrazolo[1,5-a]pyrimidin-7-yl]phenyl]-N-methylacetamide] | Active | 100 | – | –
CCC(=O)N(C)c1cccc(-c2ccnc3c(C(=O)c4ccco4)cnn23)c1 [N-[3-[3-(2-Furanylcarbonyl)pyrazolo[1,5-a]pyrimidin-7-yl]phenyl]-N-methylpropanamide] | Active | – | – | responders at 6 mg/kg ([2]; dose 6.0 mg/kg, pentylenetetrazole 23 mg/kg i.v.): 100%
CN(C)c1ccc(C(=O)c2cnn3c(-c4cccnc4)ccnc23)cc1 [[4-(dimethylamino)phenyl][7-(3-pyridinyl)pyrazolo[1,5-a]pyrimidin-3-yl]methanone] | Active | 100 | – | –
CN(C)c1ccc(C(=O)c2cnn3c(-c4cccc(C(F)(F)F)c4)ccnc23)cc1 [[4-(dimethylamino)phenyl][7-[3-(trifluoromethyl)phenyl]pyrazolo[1,5-a]pyrimidin-3-yl]methanone] | Active | 100 | – | –
O=C(c1ccsc1)c1cnn2c(-c3cccnc3)ccnc12 [[7-(3-pyridinyl)pyrazolo[1,5-a]pyrimidin-3-yl]-3-thienylmethanone] | Active | 50 | – | –
O=C(c1cccc(C(F)(F)F)c1)c1cnn2c(-c3cccnc3)ccnc12 [[7-(3-pyridinyl)pyrazolo[1,5-a]pyrimidin-3-yl][3-(trifluoromethyl)phenyl]methanone] | Active | – | 38 | –
CCNc1cccc(-c2ccnc3c(C(=O)c4ccco4)cnn23)c1 [[7-[3-(Ethylamino)phenyl]pyrazolo[1,5-a]pyrimidin-3-yl]-2-furanylmethanone] | Active | 100 | – | –
CCNc1cccc(-c2ccnc3c(C(=O)c4ccccc4)cnn23)c1 [[7-[3-(Ethylamino)phenyl]pyrazolo[1,5-a]pyrimidin-3-yl]phenylmethanone] | Active | 100 | – | –
